Measured values published in patent publication EP0025288A1, “Derivatives of monic acid, processes for their preparation, compositions containing them and their preparation” (priority 1979, dated 1981).
In brackets after ≈: the same amount, converted by molar mass.

What was measured:
[1] = system: E coli NCTC 10418; experiment: MIC, veterinary bacteria; assay type: cell-based; conditions: veterinary bacteria (Table 2), read-out: MIC
[2] = system: E coli E1; experiment: MIC, veterinary bacteria; assay type: cell-based; conditions: veterinary bacteria (Table 2), read-out: MIC
[3] = system: S dublin S7; experiment: MIC, veterinary bacteria; assay type: cell-based; conditions: veterinary bacteria (Table 2), read-out: MIC
[4] = system: S typhimurium S18; experiment: MIC, veterinary bacteria; assay type: cell-based; conditions: veterinary bacteria (Table 2), read-out: MIC
[5] = system: Bord bronchiseptica BO8; experiment: MIC, veterinary bacteria; assay type: cell-based; conditions: veterinary bacteria (Table 2), read-out: MIC
[6] = system: Bord bronchisptica BO9; experiment: MIC, veterinary bacteria; assay type: cell-based; conditions: veterinary bacteria (Table 2), read-out: MIC
[7] = system: Past multocida PA1; experiment: MIC, veterinary bacteria; assay type: cell-based; conditions: veterinary bacteria (Table 2), read-out: MIC
[8] = system: Past multocida PA2; experiment: MIC, veterinary bacteria; assay type: cell-based; conditions: veterinary bacteria (Table 2), read-out: MIC
[9] = system: Past Haemolytica PA5; experiment: MIC, veterinary bacteria; assay type: cell-based; conditions: veterinary bacteria (Table 2), read-out: MIC
[10] = system: Erysipelothrix rhusiopathiae NCTC 8163; experiment: MIC, veterinary bacteria; assay type: cell-based; conditions: NCTC8163, veterinary bacteria (Table 2), read-out: MIC
[11] = system: Corynebacterium pyogenes CY1; experiment: MIC, veterinary bacteria; assay type: cell-based; conditions: veterinary bacteria (Table 2), read-out: MIC
[12] = system: Staph aureus B4 (pen resis); experiment: MIC, veterinary bacteria; assay type: cell-based; conditions: Staphylococcus aureus, veterinary bacteria (Table 2), read-out: MIC
[13] = system: Staph aureus 152 (pen sens); experiment: MIC, veterinary bacteria; assay type: cell-based; conditions: Staphylococcus aureus, veterinary bacteria (Table 2), read-out: MIC
[14] = system: Staph aureus Oxford; experiment: MIC, veterinary bacteria; assay type: cell-based; conditions: Staphylococcus aureus, veterinary bacteria (Table 2), read-out: MIC
[15] = system: Strep suis (group D) SPS11; experiment: MIC, veterinary bacteria; assay type: cell-based; conditions: veterinary bacteria (Table 2), read-out: MIC
[16] = system: Strep uberis SPU1; experiment: MIC, veterinary bacteria; assay type: cell-based; conditions: veterinary bacteria (Table 2), read-out: MIC
[17] = system: Strep dysgalaciae SPD1; experiment: MIC, veterinary bacteria; assay type: cell-based; conditions: veterinary bacteria (Table 2), read-out: MIC
[18] = system: Strep agalactiae SPA1; experiment: MIC, veterinary bacteria; assay type: cell-based; conditions: veterinary bacteria (Table 2), read-out: MIC
[19] = system: M suipneumoniae Str 11; experiment: MIC, anti-mycoplasmal, Friis' broth microtiter method; assay type: cell-based; conditions: read-out: in vitro MIC, BROTH
[20] = system: M suipneumoniae J2206/183b; experiment: as above; assay type: cell-based; conditions: read-out: in vitro MIC, BROTH
[21] = system: M dispar H225; experiment: as above; assay type: cell-based; conditions: read-out: in vitro MIC, BROTH
[22] = system: M dispar NCTC 10125; experiment: as above; assay type: cell-based; conditions: read-out: in vitro MIC, BROTH
[23] = system: M pneumoniae 427a; experiment: as above; assay type: cell-based; conditions: read-out: in vitro MIC, BROTH
[24] = system: M pneumoniae ATCC 15492; experiment: as above; assay type: cell-based; conditions: read-out: in vitro MIC, BROTH
[25] = system: M fermentans MWKL4; experiment: as above; assay type: cell-based; conditions: read-out: in vitro MIC, BROTH
[26] = system: M pulmonis JB; experiment: as above; assay type: cell-based; conditions: read-out: in vitro MIC, BROTH
[27] = system: M pneumoniae 427a; experiment: MIC, anti-mycoplasmal, serial dilution in Friis' agar; assay type: cell-based; conditions: read-out: in vitro MIC, AGAR
[28] = system: M pneumoniae ATCC 15492; experiment: as above; assay type: cell-based; conditions: read-out: in vitro MIC, AGAR
[29] = system: M fermentans MWKL4; experiment: as above; assay type: cell-based; conditions: read-out: in vitro MIC, AGAR
[30] = system: M pulmonis JB; experiment: as above; assay type: cell-based; conditions: read-out: in vitro MIC, AGAR
[31] = system: M hyorhinis ATCC 23234; experiment: as above; assay type: cell-based; conditions: read-out: in vitro MIC, AGAR
[32] = system: M hyosynoviae ATCC 25591; experiment: as above; assay type: cell-based; conditions: read-out: in vitro MIC, AGAR
[33] = system: M arthritidis ATCC 14124; experiment: as above; assay type: cell-based; conditions: read-out: in vitro MIC, AGAR
[34] = system: M gallisepticum S6; experiment: as above; assay type: cell-based; conditions: read-out: in vitro MIC, AGAR
[35] = system: M synoviae ATCC 25204; experiment: as above; assay type: cell-based; conditions: read-out: in vitro MIC, AGAR
[36] = system: M alkalescens NCTC 10135; experiment: as above; assay type: cell-based; conditions: read-out: in vitro MIC, AGAR
[37] = system: M bovigenitalium ATCC 14173; experiment: as above; assay type: cell-based; conditions: read-out: in vitro MIC, AGAR
[38] = Serum binding by ultrafiltration; assay type: in vitro ADME, pig; conditions: pig, serum, compounds at 8 mcg/ml, microbiological assay (B. subtilis ATCC 6633), read-out: % bound to pig serum (converted)
Method: Serum binding was assessed by ultrafiltration of procine serum containing compounds at 8 mcg/ml, and through an Amicon CF50A ultrafiltration cone. Separation of ultrafiltrate was achieved by centrifugation.

In the case of `CC(=O)COC(=O)C=C(C)CC1OCC(CC2OC2C(C)C(C)O)C(O)C1O` (centres unmarked) [Example 1, Acetvlmethvl Monate A], the MIC [1] was greater than 80 µg/mL, the MIC [2] was greater than 80 µg/mL and the MIC [3] was greater than 80 µg/mL. The MIC [4] was greater than 80 µg/mL, the MIC [5] was greater than 80 µg/mL and the MIC [6] was 40 µg/mL (≈ 99.9 µM). For the same compound, the MIC [7] was 0.625 µg/mL (≈ 1.56 µM), the MIC [8] was 0.312 µg/mL (≈ 0.779 µM) and the MIC [9] was 5 µg/mL (≈ 12.5 µM). For the same compound, the MIC [10] was greater than 80 µg/mL, the MIC [11] was greater than 80 µg/mL and the MIC [12] was 2.5 µg/mL (≈ 6.24 µM). It also gave an MIC [13] of 2.5 µg/mL (≈ 6.24 µM), an MIC [14] of 2.5 µg/mL (≈ 6.24 µM) and an MIC [15] of 40 µg/mL (≈ 99.9 µM). For the same compound, the MIC [16] was 2.5 µg/mL (≈ 6.24 µM), the MIC [17] was 5 µg/mL (≈ 12.5 µM) and the MIC [18] was 5 µg/mL (≈ 12.5 µM). For the same compound, the MIC [19] was 0.625 µg/mL (≈ 1.56 µM), the MIC [20] was 1.25 µg/mL (≈ 3.12 µM) and the MIC [21] was 0.156 µg/mL (≈ 0.39 µM). It also gave an MIC [22] of 0.156 µg/mL (≈ 0.39 µM), an MIC [23] greater than 10 µg/mL and an MIC [24] greater than 10 µg/mL. For the same compound, the MIC [25] was 0.078 µg/mL (≈ 0.195 µM), the MIC [26] was 0.156 µg/mL (≈ 0.39 µM) and the MIC [27] was 10 µg/mL (≈ 25 µM). It also gave an MIC [28] greater than 10 µg/mL, an MIC [29] of 0.312 µg/mL (≈ 0.779 µM) and an MIC [30] of 0.156 µg/mL (≈ 0.39 µM). The MIC [31] was 2.5 µg/mL (≈ 6.24 µM), the MIC [32] was 1.25 µg/mL (≈ 3.12 µM) and the MIC [33] was greater than 10 µg/mL. It also gave an MIC [34] greater than 10 µg/mL, an MIC [35] of less than 0.02 µg/mL and an MIC [36] of 0.039 µg/mL (≈ 0.0974 µM). It also gave an MIC [37] of 0.078 µg/mL (≈ 0.195 µM) and a fraction unbound [38] of 0.772.
